Results published in BindingDB's records for doi:10.1016/S0960-894X(97)10014-2 (1997).

Key:
[1] = Inhibition of ADP induced platelet aggregation in human platelet-rich plasma (PRP).
[2] = Inhibition of ADP induced platelet aggregation in human platelet-rich plasma (PRP)

| IC50 [1] | IC50 [2] | SMILES |
| --- | --- | --- |
| 220 nM | – | COC(=O)c1ccc(C(CC(=O)O)N2CCc3cc(OCc4ccc(C(=N)N)cc4)ccc3C2=O)cc1 (stereo not drawn) [4-{1-[6-(4-Carbamimidoyl-benzyloxy)-1-oxo-3,4-dihydro-1H-isoquinolin-2-yl]-2-carboxy-ethyl}-benzoic acid methyl ester] |
| 570 nM | – | CCCCCC(CC(=O)O)N1CCc2cc(OCc3ccc(C(=N)N)cc3)ccc2C1=O (stereo not drawn) [3-[6-(4-Carbamimidoyl-benzyloxy)-1-oxo-3,4-dihydro-1H-isoquinolin-2-yl]-octanoic acid] |
| 3000 nM | – | CCCCCCC(CC(=O)O)N1CCc2cc(OCc3ccc(C(=N)N)cc3)ccc2C1=O (stereo not drawn) [3-[6-(4-Carbamimidoyl-benzyloxy)-1-oxo-3,4-dihydro-1H-isoquinolin-2-yl]-nonanoic acid] |
| 30000 nM | – | N=C(N)c1ccc(COc2ccc3c(c2)CCN(CC(=O)O)C3=O)cc1 [[6-(4-Carbamimidoyl-benzyloxy)-1-oxo-3,4-dihydro-1H-isoquinolin-2-yl]-acetic acid] |
| 300 nM | – | CCC(CC(=O)O)N1CCc2cc(OCc3ccc(C(=N)N)cc3)ccc2C1=O (stereo not drawn) [3-[6-(4-Carbamimidoyl-benzyloxy)-1-oxo-3,4-dihydro-1H-isoquinolin-2-yl]-pentanoic acid] |
| – | 420 nM | N=C(N)c1ccc(COc2ccc3c(c2)CCN(CCC(=O)O)C3=O)cc1 [3-[6-(4-Carbamimidoyl-benzyloxy)-1-oxo-3,4-dihydro-1H-isoquinolin-2-yl]-propionic acid] |
| 230 nM | – | CCCC(CC(=O)O)N1CCc2cc(OCc3ccc(C(=N)N)cc3)ccc2C1=O (stereo not drawn) [3-[6-(4-Carbamimidoyl-benzyloxy)-1-oxo-3,4-dihydro-1H-isoquinolin-2-yl]-hexanoic acid] |

Further lines, the molecule ahead of its results:

| SMILES | IC50 [1] | IC50 [2] |
| --- | --- | --- |
| N=C(N)c1ccc(COc2ccc3c(c2)CCN(C(CC(=O)O)c2ccccc2)C3=O)cc1 (stereo not drawn) [3-[6-(4-Carbamimidoyl-benzyloxy)-1-oxo-3,4-dihydro-1H-isoquinolin-2-yl]-3-phenyl-propionic acid] | 200 nM | – |
| CCOCCCC(CC(=O)O)N1CCc2cc(OCc3ccc(C(=N)N)cc3)ccc2C1=O (stereo not drawn) [3-[6-(4-Carbamimidoyl-benzyloxy)-1-oxo-3,4-dihydro-1H-isoquinolin-2-yl]-6-ethoxy-hexanoic acid] | 470 nM | – |
| COCCOCC(CC(=O)O)N1CCc2cc(OCc3ccc(C(=N)N)cc3)ccc2C1=O (stereo not drawn) [3-[6-(4-Carbamimidoyl-benzyloxy)-1-oxo-3,4-dihydro-1H-isoquinolin-2-yl]-4-(2-methoxy-ethoxy)-butyric acid] | 680 nM | – |
| CCCCC(CC(=O)O)N1CCc2cc(OCc3ccc(C(=N)N)cc3)ccc2C1=O (stereo not drawn) [3-[6-(4-Carbamimidoyl-benzyloxy)-1-oxo-3,4-dihydro-1H-isoquinolin-2-yl]-heptanoic acid] | 600 nM | – |
| COc1ccc(C(CC(=O)O)N2CCc3cc(OCc4ccc(C(=N)N)cc4)ccc3C2=O)cc1 (stereo not drawn) [3-[6-(4-Carbamimidoyl-benzyloxy)-1-oxo-3,4-dihydro-1H-isoquinolin-2-yl]-3-(4-methoxy-phenyl)-propionic acid] | 260 nM | – |
| COCCCC(CC(=O)O)N1CCc2cc(OCc3ccc(C(=N)N)cc3)ccc2C1=O (stereo not drawn) [3-[6-(4-Carbamimidoyl-benzyloxy)-1-oxo-3,4-dihydro-1H-isoquinolin-2-yl]-6-methoxy-hexanoic acid] | 600 nM | – |
